Data from patent US20180153868A1, “TREATMENT OF BREAST CANCER BY CONCOMITANT ADMINISTRATION OF A BROMODOMAIN INHIBITOR AND A SECOND AGENT” (Gilead Sciences, Inc., priority 2016, published 2018).
Read-outs that look alike come from different tables or passages of the source. Values belong to the compound of their own block, whether it stands above or below them.

Experiments:
Type in all cases: cell-based
MCF7 [1] = experiment: Colony formation / survival assay, MCF7; settings: 7 days
Method: (§1) Colony Formation or Survival Asasys: Cells were seeded in 12-well plates in triplicates at a density of 600 cells per well for MCF7 and 800 cells per well for T47D cells. Cells were treated after overnight incubated. Medium was changed every 3-4 days until cluster of colonies were formed. The plates were incubated for 7 days for MCF7 cells and xx days for T47D cells. Colonies in the plate were fixed and stained with Formaldehyde (1.0% v/v), Methanol (1%) and crystal violet (1% w/v) for xx min; thoroughly washed with water and air dry and counted using with automated colony counter (Gel counter. OXFORD OPTRONIC Inc). Results are present as average colony count ±SD.
(§2) Impact on cell growth can also be evaluated in colony survival assays. To evaluate the effect of compound (I-1) on colony survival, MCF7 and T47D were plated at low density and treated with several doses of compound (I-1) alone and in combination with fulvestrant. The number of colonies formed after 7 days in culture was evaluated (FIG. 9). […] In the presence of fulvestrant, colony number was reduced 73%, and 20 nM compound (I-1) further reduced colony number by 92%. […] In the presence of fulvestrant, colony number was reduced 41%.

T47D [2] = experiment: Colony formation / survival assay, T47D
Method: as §1, §2

ER = ER protein expression in MCF7 and T47D (FIG. 1); settings: 24 hours
Description: (§3) ER, when bound by estrogen or […] such as fulvestrant, undergoes a conformational change that promotes ubiquitination and degradation of the receptor.

T47D [3] = experiment: Cell viability assay (Cell Titer-Glo), T47D; settings: for EC50: Homo sapiens, 96 hours
Method: (§4) The cell viability was determined using the Cell Titer-Glo luminescent cell viability assay, according to the manufacturer's instructions. Luminescence was measured using a PHERAstar FS microplate reader (BMG LABTECH, German). The half-maximal inhibitory concentration (IC50) values were calculated using the prism plot software. The effects of treatments were measured by conducting three independent experiments.

[4] = test system: ER targets GREB1, MYC, and PGR; experiment: Protein expression of ER targets in MCF7 and T47D (FIG. 1); settings: 24 hours
Description: as §3

MCF7 [5] = experiment: Cell viability assay (Cell Titer-Glo), MCF7; settings: for EC50: Homo sapiens, 72 hours
Method: as §4

[6] = single agent fulvestrant treatment
[7] = 20 nM compound (I-1) in the presence of fulvestrant
[8] = compound (I-1) alone, read-out: average EC50, cell viability
[9] = in the presence of fulvestrant, read-out: EC50, cell viability

Compound: C[C@]12CC[C@@H]3c4ccc(O)cc4C[C@@H](CCCCCCCCC[S+]([O-])CCCC(F)(F)C(F)(F)F)[C@H]3[C@@H]1CC[C@@H]2O (stereo partly shown) [fulvestrant, reference compound]
- colony number reduced (MCF7 [1]; fulvestrant alone): 73%
- colony number reduced (T47D [2]; fulvestrant alone): 41%
- ER protein levels (ER; 12 nM Fulvestrant): reduced ER protein levels
- reduced growth (average) (T47D [3]; [6]): 35.8±5.0%
- estrogen induction of GREB1, MYC, PGR protein expression ([4]; in the presence of fulvestrant (12 nM)): significantly reduced
- reduced growth (average) (MCF7 [5]; [6]): 47.0±19.6%

- EC50 (T47D [3]; [8]): 95.3 ± 16.5 nM
- EC50 (T47D [3]; [9]): 64 ± 5 nM
- increase in potency (EC50 alone vs in combination with fulvestrant) (T47D [3]; p value 0.0030): 1.5 fold
- EC50 (MCF7 [5]; [8]): 61.3 ± 8.4 nM
- EC50 (MCF7 [5]; [9]): 25 ± 10.6 nM
- increase in potency (EC50 alone vs in combination with fulvestrant) (MCF7 [5]; p value 0.00027): 2.5 fold
Compound: Cc1noc(C)c1-c1cc(C(O)(c2ccccn2)c2ccccn2)c2nc(C3CC3)[nH]c2c1 [compound (I-1), (2-cyclopropyl-6-(3,5-dimethylisoxazol-4-yl)-1H-benzo[d]imidazol-4-yl)di(pyridin-2-yl)methanol]
- reduced colony number (MCF7 [1]; 20 nM compound (I-1) alone): 48%
- further reduced colony number (MCF7 [1]; [7]): 92%
- effect on colonies (MCF7 [1]; 60 nM compound (I-1) alone): nearly all colonies eliminated
- effect on colonies (MCF7 [1]; 120 nM compound (I-1) alone): nearly all colonies eliminated
- effect on colony number (T47D [2]; 20 nM compound (I-1) alone): no significant effect
- effect on colony number (T47D [2]; [7]): no significant effect
- reduced colony number (T47D [2]; 60 nM compound (I-1) alone): 53%
- further reduced colony number (T47D [2]; 60 nM compound (I-1) in the presence of fulvestrant): 66%
- reduced colony number (T47D [2]; 120 nM compound (I-1) alone): 60%
- further reduced colony number (T47D [2]; 120 nM compound (I-1) in the presence of fulvestrant): 78%
- ER protein expression (ER; 100 or 50 nM compound (I-1) added under estrogen or fulvestrant treatments): further reduced ER protein expression
- ER target (GREB1, MYC, PGR) expression ([4]; addition of 50 or 100 nM compound (I-1)): consistently reduced target expression
- ER target (GREB1, MYC, PGR) protein reduction ([4]; combination of fulvestrant and compound (I-1)): most pronounced protein reduction
